Laboratory results taken from patent US20220204563A1, “DELIVERY PEPTIDES AND METHODS OF USING THE SAME” (NATIONAL INSTITUTE FOR BIOTECHNOLOGY IN THE NEGEV LTD., priority 2019, published 2022).
Primed or numbered codes have the meaning given here. No end group written: not given here. TAMRA = tetramethylrhodamine fluorescent label; FITC′ = not defined here

Columns and labels:
[1] = test system: M. rosenbergii early vitellogenic oocytes; assay: In vitro incubation of ovary pieces with fluorophore-labelled peptides, confocal imaging of oocytes; type: cell-based, Macrobrachium rosenbergii; details: for Fluorescent intensity in oocytes compared to Vg246-253-TAMRA: ovary slices in vitro, TAMRA emission; for Distribution of TAMRA-labelled peptide in the oocyte: ovary pieces incubated with Vg-TAMRA or scVg-TAMRA separately, 6 μM, confocal; for Endocytosis into oocytes, distribution of the two fluorescent-labelled peptides: simultaneous incubation with Vg-TAMRA and control-FITC, 6 μM each
Description: (§1) Ovary pieces from in-vitro or in-vivo experiments were washed with Schneider's drosophila medium without the peptides for 5 min. Then, the pieces were torn apart on a slide in one drop of the medium to better view the individual oocytes. The slides were inspected, and images were taken by a confocal microscope FV1000 (Olympus) at ×60 magnification. The excitation laser wavelength was 561 nm for the TAMRA labelled peptides and 488 nm for FITC labelled control peptides, and the emission was obtained at […], respectively.
M. rosenbergii ovary pieces of 1-3 mm with oocytes diameter of ˜150 μm (early vitellogenic ovaries) were incubated in a sterile 24-wells plate, 2 cm^2 growth area each well (Biofil®) in a biological hood. Each piece was incubated with 250 μl Schneider's drosophila culture medium with osmolality fixed to 420 mOsm/L and supplemented with FBS (10%), PSA (final concentration: Penicillin—100 units/mL, streptomycin—0.1 mg/mL, Amphotericin B—0.25 μg/mL and insulin 10 mg/ml insulin in 25 mM HEPES). The ovary pieces were incubated either with Vg-TAMRA or scVg-TAMRA or with both Vg-TAMRA and scVg-FITC simultaneously (6 μM each). The plate was incubated at room temperature for 24 and 48 hours. To test dsRNA piggybacking, 55 pmole dsRNA was conjugated to 275 pmole either Vg-TAMRA or scVg-FITC peptides. Ovary pieces were incubated with the dsGFP-Vg-TAMRA or dsGFP-scVg-FITC conjugates and cultured as stated above.
To evaluate the endocytosis capability of oocytes with respect to the newly designed Vg-derived peptides, an in vitro experiment was performed. Vg-derived and control peptides, labeled with TAMRA fluorophore, were detected by confocal microscopy. Both peptides were detected in the vicinity of the oocyte membrane (FIG. 4). […] In order to get the highest certainty regarding the internalization specificity of the Vg-derived peptides, the Vg and control peptides were labelled with an additional fluorophore (FIGS. 4E-4H), Vg peptide was labelled with TAMRA (FIGS. 4E and 4H), while the control peptide has been labelled with FITC molecule (FIG. 4F). A similar result was obtained in this experiment showing distinct distribution of the two fluorescent-labelled peptides.
Further, a dose dependent test with respect to Vg-derived peptides penetration into oocytes using Vg descending concentrations was performed (FIG. 5). Unlike the control scrambled peptide (scVg), the Vg peptide maintained similar pattern of distribution in the oocyte throughout the descending concentrations (FIG. 5, upper row).
The inventors further examined the capability and efficacy of shorter/partial sequences derived from the peptide of the invention to being internalized into M. rosenbergii oocytes. Further, the inventors examined whether homologous peptides derived from a different decapod crustacean, e.g., Litopenaeus vannamei, would also be internalized into M. rosenbergii oocytes.
The mentioned peptides were incubated in vitro with ovary slices to evaluate their internalization. […] In contrast to that, the Vg-derived peptides were capable to enter the oocyte as they were observed beyond the follicular cells inside the oocytes (red dots, FIGS. 11B-11G). […] Moreover, both L. vannamei Vg derived peptides were capable to endocytose into M. rosenbergii oocytes (FIGS. 11F-11G).

[2] = Dynamic light scattering (DLS) of dsRNA-peptide conjugates; type: physicochemical; details: 700 bp dsRNA, dsRNA:peptide ratio 1:30 (FIG. 6B dots)
Description: Constant amount of dsRNA (25 pmole) solution was mixed with an increasing amount of peptide solution in an Eppendorf vial (˜1.5 mL). The total conjugation reaction volume was completed to 15 μl with DEPC treated DDW. The solutions were incubated at room temperature for 20 minutes. To evaluate peptide-dsRNA conjugation, a 1.3% agarose gel was prepared in TAE buffer. Conjugates were mixed with equal volume of loading buffer (50% glycerol and 0.5 M EDTA). Peptide-dsRNA conjugates were separated for 30 minutes at 120 V. Fluorescent emission of conjugates in gels were scanned by using a Typhoon FLA 9500 gel system (GE Healthcare®).
In order to verify whether the Vg-derived peptide was capable to piggyback and internalize a large molecule such as a dsRNA into the oocytes, a conjugation approach between the peptide and dsRNA was developed. The Vg-TAMRA and the control-FITC peptides were synthesized with a cationic poly lysine-histidine tail (KH) to allow electrostatic interactions between the peptides and the negatively charged dsRNA. The dsRNA-peptide complexes prepared at different molar ratios (peptide/dsRNA ratio: 1, 5, 10, 20 and 30) were characterized with two different assays: dynamic light scattering (DLS) and separation on agarose gel.
dsRNA of 700 bp (dsEGFR) and another one a mix of 200 and 230 bp dsRNA (dsPAX6) were prepared (FIG. 3A). […]

oocytes = assay: In vivo assay: peptide injection into the hemolymph of reproductive females, confocal imaging of oocytes and gills; design: species or system Macrobrachium rosenbergii; details: for Fluorescent emission in oocytes after injection: mixture of both peptides injected, 5 μg/gr body weight, oocytes dissected 24 h after injection
Description: as §1
Solution containing the culture medium, Vg-TAMRA and scVg-FITC peptides were injected (5 μg/gr body weight) into the hemolymph sinus at the base of the fifth walking leg of a M. rosenbergii reproductive females (14.3±0.4 gr, with opaque white to yellowish ovary, FIG. 2, left). For the injection, a manual micro dispenser syringe was used (Drummond®). After injection, the animals were kept at 28° C. for 24 hours in the culture facility for freshwater prawn M. rosenbergii, at Ben-Gurion University. Vg-dsEGFR or Vg-dsPAX6 conjugates (5:1 molar ratio for conjugation, 5 μg dsRNA/g body weight) were injected twice a week at the first two weeks. From the third week, the injections were performed once a week. The females were monitored daily and upon appearance of the reproductive molt, the females were released to a tank with a male for fertilization. The embryos' development on the pleopods of their mother (FIG. 2, middle) were monitored under stereoscope, and a fraction was collected for RNA extraction and subsequent quantitative PCR analysis.
To determine whether the Vg-TAMRA peptide has the capability to specifically in vivo internalize into oocytes, a mixture of the Vg-TAMRA and the control-FITC peptides were injected into the prawn circulatory system. […] To verify that the two peptides did circulate through the prawn female body, the prawn gills were dissected and examined under the confocal microscope.

DKNIIKPK-TAMRA (DKNIIKPK-{TAMRA}) [Vg237-244-TAMRA]
Fluorescent intensity in oocytes compared to Vg246-253-TAMRA [1]: Weaker florescent intensity

KHKHKHKHKHKHKHKHKHCDKNIIKPAYGSYKYVEAHQESVLRK-TAMRA (KHKHKHKHKHKHKHKHKHCDKNIIKPAYGSYKYVEAHQESVLRK-{TAMRA}) [KH9-Vg]
Particle radius (DLS) [2]: ~100 nm

CQAPVKLIAYDKNKYEHEYRISVSGK-TAMRA (CQAPVKLIAYDKNKYEHEYRISVSGK-{TAMRA}) [scVg-TAMRA, reference compound]
Distribution of TAMRA-labelled peptide in the oocyte [1]: mainly dispersed on the outer surface of the oocyte
Fluorescent signal in oocytes ([1]; peptide concentration 0.75 μM): No signal was detected
Fluorescent signal in oocytes ([1]; peptide concentration 1.5 μM): no apparent signal
Fluorescent signal in oocytes ([1]; peptide concentration 6 μM): weak fluorescent signal
Fluorescent signal in oocytes ([1]; peptide concentration 12 μM): weak fluorescent signal

CDKNIIKPAYGSYKYVEAHQESVLRK-TAMRA (CDKNIIKPAYGSYKYVEAHQESVLRK-{TAMRA}) [Vg-TAMRA]
Fluorescence intensity in comparison to the control peptide ([1]; descending concentrations 12-0.75 μM, fluorescence and overlay images): higher intensity of the red TAMRA emission
Distribution of TAMRA-labelled peptide in the oocyte [1]: distributed mainly at the cytosolic side of the oocyte membrane
Fluorescent signal in oocytes ([1]; peptide concentration 0.75 μM): No signal was detected
Fluorescent signal in oocytes ([1]; peptide concentration 1.5 μM): clear fluorescent signal
Fluorescent signal in oocytes ([1]; peptide concentration 6 μM): clear fluorescent signal
Fluorescent signal in oocytes ([1]; peptide concentration 12 μM): clear fluorescent signal
Endocytosis into oocytes, distribution of the two fluorescent-labelled peptides [1]: clearly observed
Detection of peptide in gills after injection (oocytes; early vitellogenic female injected simultaneously with both peptides): can be detected in the gills
Fluorescent emission in oocytes after injection (oocytes): a clear 564 nm emission was seen inside the oocytes

DKNIIKPAYGSYKYVEAK-TAMRA (DKNIIKPAYGSYKYVEAK-{TAMRA}) [Vg237-253-TAMRA]
Fluorescent intensity in oocytes compared to Vg246-253-TAMRA [1]: Weaker florescent intensity

Vg235-260-TAMRA: 26 amino acid VgR interacting region peptide; probably the Vg-TAMRA peptide of SEQ ID NO: 22 (CDKNIIKPAYGSYKYVEAHQESVLRK; not fully specified (C-terminus); also: TAMRA label)
Fluorescent intensity in oocytes compared to Vg246-253-TAMRA [1]: Weaker florescent intensity

CQAPVKLIAYDKNKYEHEYRISVSGK-FITC (CQAPVKLIAYDKNKYEHEYRISVSGK-{FITC′}) [scVg-FITC, reference compound]
Internalization into M. rosenbergii oocytes ([1]; ovary slices incubated with Vg-derived peptide TAMRA and scVg-FITC simultaneously): observed only on the outer area of the oocyte
Endocytosis into oocytes, distribution of the two fluorescent-labelled peptides [1]: only on the outer surface of the membrane
Detection of peptide in gills after injection (oocytes; in vivo): can be detected in the gills
Fluorescent emission in oocytes after injection (oocytes): absent from oocytes
